{"source": "patent US8361510B2", "about": "“Nanogels for cellular delivery of therapeutics” (Georgia Tech Research Corporation, priority 2008, dated 2013)", "system": "EGFR", "test": "EGFR expression by immunoblotting in Hey cells", "assay_type": "cell-based", "protocol": "Immunoblotting. Hey cells were plated into 6-well plates (5×10^5/well) and allowed to adhere overnight at 37° C., 5% CO2. The cells were lysed with 100 μL of lysis buffer (50 mM Tris-HCl, pH 7.5, 150 mM NaCl, 2 mM EDTA (Fisher), 2 mM EGTA (Fisher), 1 mM sodium orthovanadate, 2.5 mM sodium pyrophosphate, 1 mM β-gycerolphosphate, 1 mM phenylmethanesulfonyl fluoride, 10 μg/mL aprotinin, 10 μg/mL leupeptin, 1% Triton X-100, and 5% glycerol), and the cell lysates sonicated four times for five seconds each. The lysates were cleared by centrifugation at 11,000×g rcf for […] at 4° C. Cell lysates were prepared for analysis by the addition of an equal volume of Laemmli 2× sample buffer. The samples were heated to 95° C. for […] to denature the proteins. The proteins were separated on a 10% SDS-PAGE gel and transferred onto nitrocellulose. The blots were blocked with either 5% nonfat dry milk (NFDM) or 5% bovine serum albumin (BSA) in 10 mM Tris-buffered saline, pH 7.5 plus 1% Tween 20 (TBST, BioRad) for 1 hour at room temperature. The blots were probed with anti-EGFR antibody (Cell Signaling, Danvers, Mass.; cat. no. 4405) or with a β-actin antibody (Millipore, Billerica, Mass.; Mab1501) diluted in 5% NFDM or 5% BSA overnight, with shaking at 4° C. For EphA2 detection, the blots were probed with an anti-EphA2 polyclonal antibody (Santa Cruz Biotechnology, Santa Cruz, Calif.; sc-294). The blots were washed three times with TBST and probed with goat anti-rabbit IgG (Santa Cruz, sc-2004) or with goat anti-mouse IgG (Santa Cruz, sc-2005) linked to horseradish peroxidase (HRP). Bands were visualized on film (Pierce) using the ECL reagent, SuperSignal West Pico™ (Pierce).\nAs described above, we chose siRNA targeting EGFR; knockdown of this receptor is non-lethal, but has clinical relevance in the treatment of drug resistant ovarian carcinomas. To determine if we could effectively knockdown EGFR in vitro, EGFR siRNA was encapsulated at a concentration of 16.6 μg of EGFR siRNA/mg of nanogels, using the loading technique described above. […]", "note": "Where no end group is shown, it is not given here."}
{"substance": "YSA-conjugated nanogels: core/shell pNIPMAm nanogels with YSA peptide coupled to shell amines via maleimide (EMCA) (YSAYPDSVPMMSC; also: coupled to nanogel shell amines via maleimide (EMCA))", "values": [{"measurement": "EGFR expression relative to controls", "setting": "Example 1, 4 h incubation, harvested at 48 hours, 1 mg nanogels/5×10^5 cells", "value": "small, statistically insignificant decrease"}, {"measurement": "EGFR expression of control treatments compared to untreated cells", "setting": "Example 2", "value": "slight decrease"}]}
